US5891458A, “Bioerodible device for administering active ingredients” (priority 1997, dated 1999)

Tests used:
[1] = parameters: species or system Sprague-Dawley rats; conditions: rat, in vivo
Description: The devices prepared in Example 2 were evaluated in ovariectomized Sprague-Dawley rats. The rats were ovariectomized 2 weeks prior to testing. On the test day the animals were anesthetized with ether and administered with either 10 ug of 17 B-estradiol in sesame oil [0.2 ml by subcutaneous (S.C.) or ingestion (I.G.) routes] or a soluble device containing an equal amount of estradiol placed buccally. Animals were kept anesthetized for approximately 10 minutes after estradiol administration. Trunk blood was collected at various times thereafter.

diestrus rat = experiment: In-vivo delivery study of histrelin buccal device: induction of ovulation in the diestrus rat; conditions: for ED50 dose (inducing ovulation): buccal tablet
Description: The study was designed to measure the ability of the histrelin delivered by the soluble buccal devices of the invention to induce ovulation in the diestrus rat. Devices were prepared by punching 7 mm tablets from the tray containing the lyophilized foam. Each tablet theoretically contained 297 ug of histrelin. Whole, halved and quartered tablets were then placed in the buccal cavity of diestrus rats anesthetized with ether. After 10 minutes the device was absorbed. The following day the rats were sacrificed and the oviducts removed and examined for the presence of ova.

[2] = half buccal tablet, histrelin 150 ug
[3] = quarter buccal tablet, histrelin 75 ug
[4] = whole buccal tablet, histrelin 300 ug

| SMILES | bioavailability of estradiol administered buccally [1] | time after which the device was absorbed (diestrus rat; buccal cavity of anesthetized diestrus rats) | ED50 dose (inducing ovulation) (diestrus rat; per body weight) | ED50 dose (inducing ovulation) (diestrus rat; per rat) | inducing ovulation (result in words) (diestrus rat; buccal tablets) | # of Rats Ovulating/Total # of Rats (diestrus rat; [2]) | Ova/Rat (diestrus rat; [2]) | # of Rats Ovulating/Total # of Rats (diestrus rat; [3]) | Ova/Rat (diestrus rat; [3]) | # of Rats Ovulating/Total # of Rats (diestrus rat; [4]) | Ova/Rat (diestrus rat; [4]) |
| --- | --- | --- | --- | --- | --- | --- | --- | --- | --- | --- | --- |
| C[C@]12CC[C@@H]3c4ccc(O)cc4CC[C@H]3[C@@H]1CC[C@@H]2O [Estradiol, 17 B-estradiol] | greater than oral administration but less than administered by injection |  |  |  |  |  |  |  |  |  |  |
| CCNC(=O)[C@@H]1CCCN1C(=O)[C@H](CCCNC(=N)N)NC(=O)[C@H](CC(C)C)NC(=O)[C@@H](Cc1cn(Cc2ccccc2)cn1)NC(=O)[C@H](Cc1ccc(O)cc1)NC(=O)[C@H](CO)NC(=O)[C@H](Cc1c[nH]c2ccccc12)NC(=O)[C@H](Cc1cnc[nH]1)NC(=O)[C@@H]1CCC(=O)N1 [Histrelin] |  | 10 min | ~0.3 mg/kg | approximately 75 ug/rat | effective in inducing ovulation in a dose-dependent manner | 4/5 | 8 | 4/6 | 6 | 6/6 | 13 |
